Common to all, as to test: cells
One experiment concerns L1210. Type of experiment: cell-based, mouse.
The test system of a further experiment is HCT116/VM46. In kind it is cell-based, human.
The test system of a further experiment is HCT116. Type of experiment: cell-based, human.
Where [1] appears, read: Table 2C, side-by-side, multiple examinations with several independent samples; read-out: IC50 (nM) L1210.
Setting [2] is: Table 2C, side-by-side, multiple examinations with several independent samples; read-out: IC50 (nM) HCT116/VM46.
[3] abbreviates: Mus musculus, L1210; Table 1A, C16′-modified anhydrovinblastine analogues; read-out: IC50 (nM) L1210.
The mark [4] stands for this setting: Homo sapiens, HCT-116; Table 1A, C16′-modified anhydrovinblastine analogues; read-out: IC50 (nM) HCT116.
[5] abbreviates: Homo sapiens, HCT-116/VM46; Table 1A, C16′-modified anhydrovinblastine analogues; read-out: IC50 (nM) HCT116/VM46.
[6] abbreviates: Mus musculus, L1210; read-out: IC50 (nM) L1210.
The mark [7] stands for this setting: Homo sapiens, HCT-116; read-out: IC50 (nM) HCT116.
Where [8] appears, read: Homo sapiens, HCT-116/VM46; read-out: IC50 (nM) HCT116/VM46.
Setting [9] is: Mus musculus, L1210; Table 2A, C10′-substituted anhydrovinblastines, single evaluations; read-out: IC50 (nM) L1210.
The mark [10] stands for this setting: Homo sapiens, HCT-116; Table 2A, C10′-substituted anhydrovinblastines, single evaluations; read-out: IC50 (nM) HCT116.
The mark [11] stands for this setting: Homo sapiens, HCT-116/VM46; Table 2A, C10′-substituted anhydrovinblastines, single evaluations; read-out: IC50 (nM) HCT116/VM46.
Where [12] appears, read: Mus musculus, L1210; Table 2B, C10′-substituted vinblastines, single evaluations; read-out: IC50 (nM) L1210.
Setting [13] is: Homo sapiens, HCT-116; Table 2B, C10′-substituted vinblastines, single evaluations; read-out: IC50 (nM) HCT116.
Setting [14] is: Homo sapiens, HCT-116/VM46; Table 2B, C10′-substituted vinblastines, single evaluations; read-out: IC50 (nM) HCT116/VM46.

Read-outs that look alike come from different tables or passages of the source. Where only a bound is given, the exact number is not on record here.

As to `CC[C@]1(O)C[C@@H]2CN(CCc3c([nH]c4ccccc34)[C@@](C(=O)OC)(c3cc4c(cc3OC)N(C)[C@H]3[C@@](O)(C(=O)OC)[C@H](OC(C)=O)[C@]5(CC)C=CCN6CC[C@]43[C@@H]65)C2)C1` [Compound 1, Vinblastine, reference compound], the IC50 in the experiment with L1210 (Table 1B, C16′-modified vinblastine analogues; read-out: IC50 (nM) L1210) is 6 nM; in the experiment on L1210 (Table 2B, C10′-substituted vinblastines, single evaluations; read-out: IC50 (nM) L1210), 6 nM; in the experiment on L1210 (setting [1]), 6 nM; in the experiment with HCT116/VM46 (Table 1B, C16′-modified vinblastine analogues; read-out: IC50 (nM) HCT116/VM46), 600 nM; in the experiment on HCT116/VM46 (Table 2B, C10′-substituted vinblastines, single evaluations; read-out: IC50 (nM) HCT116/VM46) it was 600 nM; with HCT116/VM46 (setting [2]), 600 nM.

Turning to `CC[C@]1(O)C[C@H]2CN(CCc3c([nH]c4ccccc34)[C@@](C(=O)OC)(c3cc4c(cc3OC)N(C=O)[C@H]3[C@@](O)(C(=O)OC)[C@H](OC(C)=O)[C@]5(CC)C=CCN6CC[C@]43[C@@H]65)C2)C1` [Compound 2, Vincristine, reference compound], the IC50 in the experiment with L1210 (setting [1]) worked out at 6 nM; with HCT116 (Table 2C, side-by-side, multiple examinations with several independent samples; read-out: IC50 (nM) HCT116) it was 7 nM; with HCT116/VM46 (setting [2]) it was 700 nM.

Turning to `CCC1=C[C@@H]2CN(CCc3c([nH]c4ccccc34)[C@@](C(=O)OC)(c3cc4c(cc3OC)N(C)[C@H]3[C@@](O)(C(=O)OC)[C@H](OC(C)=O)[C@]5(CC)C=CCN6CC[C@]43[C@@H]65)C2)C1` [Compound 4a, anhydrovinblastine, reference compound], the IC50 came to 65 nM with L1210 (Table 1A, C16′-modified anhydrovinblastine analogues; read-out: IC50 (nM) L1210); 65 nM in the experiment on L1210 (Table 2A, C10′-substituted anhydrovinblastines, single evaluations; read-out: IC50 (nM) L1210); 75 nM with HCT116 (Table 1A, C16′-modified anhydrovinblastine analogues; read-out: IC50 (nM) HCT116); 75 nM with HCT116 (Table 2A, C10′-substituted anhydrovinblastines, single evaluations; read-out: IC50 (nM) HCT116); 600 nM in the experiment with HCT116/VM46 (Table 1A, C16′-modified anhydrovinblastine analogues; read-out: IC50 (nM) HCT116/VM46); 600 nM with HCT116/VM46 (Table 2A, C10′-substituted anhydrovinblastines, single evaluations; read-out: IC50 (nM) HCT116/VM46).

`CCOC(=O)[C@]1(c2cc3c(cc2OC)N(C)C2C(O)(C(=O)OC)[C@H](OC(C)=O)[C@]4(CC)C=CCN5CC[C@]32[C@@H]54)C[C@@H]2C=C(CC)CN(CCc3c1[nH]c1ccccc31)C2` (stereo partly drawn) [Compound 5a]: the IC50 with L1210 (setting [3]) came out at 620 nM; in the experiment with HCT116 (setting [4]), 640 nM; in the experiment on HCT116/VM46 (setting [5]), 4100 nM.

Consider `CCOC(=O)[C@]1(c2cc3c(cc2OC)N(C)C2C(O)(C(=O)OC)[C@H](OC(C)=O)[C@]4(CC)C=CCN5CC[C@]32[C@@H]54)C[C@H]2CN(CCc3c1[nH]c1ccccc31)C[C@](O)(CC)C2` (stereo partly drawn) [Compound 5b], for which the IC50 is 60 nM with L1210 (setting [6]), 70 nM with HCT116 (setting [7]) and 830 nM in the experiment with HCT116/VM46 (setting [8]).

With `CCC1=C[C@@H]2CN(CCc3c([nH]c4ccccc34)[C@@](C#N)(c3cc4c(cc3OC)N(C)C3C(O)(C(=O)OC)[C@H](OC(C)=O)[C@]5(CC)C=CCN6CC[C@]43[C@@H]65)C2)C1` (stereo partly drawn) [Compound 6a], the IC50 with L1210 (setting [3]) is 6500 nM; in the experiment with HCT116 (setting [4]), 6100 nM; in the experiment with HCT116/VM46 (setting [5]) it was 6800 nM.

As to `CC[C@]1(O)C[C@@H]2CN(CCc3c([nH]c4ccccc34)[C@@](C#N)(c3cc4c(cc3OC)N(C)C3C(O)(C(=O)OC)[C@H](OC(C)=O)[C@]5(CC)C=CCN6CC[C@]43[C@@H]65)C2)C1` (stereo partly drawn) [Compound 6b], the IC50 in the experiment on L1210 (setting [6]) was determined as 630 nM; in the experiment with HCT116 (setting [7]) it was 670 nM; in the experiment on HCT116/VM46 (setting [8]), 7400 nM.

On to `CCC1=C[C@@H]2CN(CCc3c([nH]c4ccccc34)[C@@](C(N)=O)(c3cc4c(cc3OC)N(C)C3C(O)(C(=O)OC)[C@H](OC(C)=O)[C@]5(CC)C=CCN6CC[C@]43[C@@H]65)C2)C1` (stereo partly drawn) [Compound 7a], for which the IC50 with L1210 (setting [3]), with HCT116 (setting [4]) and with HCT116/VM46 (setting [5]) was over 10000 nM each time.

Consider `CC[C@]1(O)C[C@@H]2CN(CCc3c([nH]c4ccccc34)[C@@](C(N)=O)(c3cc4c(cc3OC)N(C)C3C(O)(C(=O)OC)[C@H](OC(C)=O)[C@]5(CC)C=CCN6CC[C@]43[C@@H]65)C2)C1` (stereo partly drawn) [Compound 7b], for which the IC50 with L1210 (setting [6]), in the experiment with HCT116 (setting [7]) and in the experiment with HCT116/VM46 (setting [8]) was over 10000 nM each time.

With `CCC1=C[C@@H]2CN(CCc3c([nH]c4ccccc34)[C@@](C=O)(c3cc4c(cc3OC)N(C)C3C(O)(C(=O)OC)[C@H](OC(C)=O)[C@]5(CC)C=CCN6CC[C@]43[C@@H]65)C2)C1` (stereo partly drawn) [Compound 8a], the IC50 with L1210 (setting [3]) was 6300 nM; in the experiment with HCT116 (setting [4]), 7000 nM; with HCT116/VM46 (setting [5]), over 10000 nM.

Turning to `CC[C@]1(O)C[C@@H]2CN(CCc3c([nH]c4ccccc34)[C@@](CO)(c3cc4c(cc3OC)N(C)C3C(O)(C(=O)OC)[C@H](OC(C)=O)[C@]5(CC)C=CCN6CC[C@]43[C@@H]65)C2)C1` (stereo partly drawn) [Compound 11b], the figures for the IC50 in the experiment on L1210 (setting [6]), in the experiment with HCT116 (setting [7]) and with HCT116/VM46 (setting [8]) were 6500 nM, 5800 nM and over 10000 nM, respectively.

For the molecule `CCC1=C[C@@H]2CN(CCc3c([nH]c4ccc(C#N)cc34)[C@@](C(=O)OC)(c3cc4c(cc3OC)N(C)C3C(O)(C(=O)OC)[C@H](OC(C)=O)[C@]5(CC)C=CCN6CC[C@]43[C@@H]65)C2)C1` (stereo partly drawn) [Compound 15a, 10′-cyanoanhydrovinblastine], the IC50 was 65 nM in the experiment with L1210 (Mus musculus, L1210, read-out: IC50 (nM) L1210); 70 nM in the experiment with HCT116 (Homo sapiens, HCT-116, read-out: IC50 (nM) HCT116); 920 nM with HCT116/VM46 (Homo sapiens, HCT-116/VM46, read-out: IC50 (nM) HCT116/VM46).

On to `CCC1=C[C@@H]2CN(CCc3c([nH]c4ccc(I)cc34)[C@@](C(=O)OC)(c3cc4c(cc3OC)N(C)C3C(O)(C(=O)OC)[C@H](OC(C)=O)[C@]5(CC)C=CCN6CC[C@]43[C@@H]65)C2)C1` (stereo partly drawn) [Compound 16a, 10′-iodoanhydrovinblastine], for which the IC50 in the experiment with L1210 (setting [9]) was 620 nM; in the experiment on HCT116 (setting [10]), 600 nM; in the experiment with HCT116/VM46 (setting [11]), 1800 nM.

As for `CC[C@]1(O)C[C@@H]2CN(CCc3c([nH]c4ccc(I)cc34)[C@@](C(=O)OC)(c3cc4c(cc3OC)N(C)C3C(O)(C(=O)OC)[C@H](OC(C)=O)[C@]5(CC)C=CCN6CC[C@]43[C@@H]65)C2)C1` (stereo partly drawn) [Compound 16b, 10′-iodovinblastine], the IC50 with L1210 (setting [12]) came to 55 nM; with HCT116 (setting [13]) it was 60 nM; with HCT116/VM46 (setting [14]) it was 840 nM.

`CCC1=C[C@@H]2CN(CCc3c([nH]c4ccc(Br)cc34)[C@@](C(=O)OC)(c3cc4c(cc3OC)N(C)C3C(O)(C(=O)OC)[C@H](OC(C)=O)[C@]5(CC)C=CCN6CC[C@]43[C@@H]65)C2)C1` (stereo partly drawn) [Compound 17a, 10′-bromoanhydrovinblastine]: the IC50 with L1210 (setting [9]) came out at 65 nM; in the experiment on HCT116 (setting [10]), 70 nM; in the experiment with HCT116/VM46 (setting [11]) it was 860 nM.

`CC[C@]1(O)C[C@@H]2CN(CCc3c([nH]c4ccc(Br)cc34)[C@@](C(=O)OC)(c3cc4c(cc3OC)N(C)C3C(O)(C(=O)OC)[C@H](OC(C)=O)[C@]5(CC)C=CCN6CC[C@]43[C@@H]65)C2)C1` (stereo partly drawn) [Compound 17b, 10′-bromo-vinblastine]: the IC50 was 8 nM in the experiment on L1210 (setting [12]), 8.6 nM with HCT116 (setting [13]) and 270 nM with HCT116/VM46 (setting [14]).

For `CCC1=C[C@@H]2CN(CCc3c([nH]c4ccc(Cl)cc34)[C@@](C(=O)OC)(c3cc4c(cc3OC)N(C)C3C(O)(C(=O)OC)[C@H](OC(C)=O)[C@]5(CC)C=CCN6CC[C@]43[C@@H]65)C2)C1` (stereo partly drawn) [Compound 18a, 10′-chloroanhydrovinblastine], the results for the IC50 in the experiment on L1210 (setting [9]), in the experiment on HCT116 (setting [10]) and in the experiment on HCT116/VM46 (setting [11]) were 60 nM, 70 nM and 800 nM, respectively.

For `CC[C@]1(O)C[C@@H]2CN(CCc3c([nH]c4ccc(Cl)cc34)[C@@](C(=O)OC)(c3cc4c(cc3OC)N(C)C3C(O)(C(=O)OC)[C@H](OC(C)=O)[C@]5(CC)C=CCN6CC[C@]43[C@@H]65)C2)C1` (stereo partly drawn) [Compound 18b, 10′-chlorovinblastine], the IC50 stood at 6.2 nM with L1210 (setting [12]), 7.6 nM with HCT116 (setting [13]) and 720 nM in the experiment with HCT116/VM46 (setting [14]).

Regarding `CCC1=C[C@@H]2CN(CCc3c([nH]c4ccc(SC)cc34)[C@@](C(=O)OC)(c3cc4c(cc3OC)N(C)C3C(O)(C(=O)OC)[C@H](OC(C)=O)[C@]5(CC)C=CCN6CC[C@]43[C@@H]65)C2)C1` (stereo partly drawn) [Compound 20a, 10′-thiomethylanhydrovinblastine], the IC50 in the experiment with L1210 (setting [9]) was determined as 60 nM; with HCT116 (setting [10]), 85 nM; with HCT116/VM46 (setting [11]), 770 nM.

In the case of `CC[C@]1(O)C[C@@H]2CN(CCc3c([nH]c4ccc(SC)cc34)[C@@](C(=O)OC)(c3cc4c(cc3OC)N(C)C3C(O)(C(=O)OC)[C@H](OC(C)=O)[C@]5(CC)C=CCN6CC[C@]43[C@@H]65)C2)C1` (stereo partly drawn) [Compound 20b, 10′-thiomethylvinblastine], the results for the IC50 in the experiment with L1210 (setting [12]), in the experiment with HCT116 (setting [13]) and in the experiment with HCT116/VM46 (setting [14]) were 45 nM, 35 nM and 740 nM, respectively.

Take `CCC1=C[C@@H]2CN(CCc3c([nH]c4ccc(C)cc34)[C@@](C(=O)OC)(c3cc4c(cc3OC)N(C)C3C(O)(C(=O)OC)[C@H](OC(C)=O)[C@]5(CC)C=CCN6CC[C@]43[C@@H]65)C2)C1` (stereo partly drawn) [Compound 21a, 10′-methylanhydrovinblastine]: the IC50 was determined as 65 nM with L1210 (setting [9]), 65 nM in the experiment on HCT116 (setting [10]) and 640 nM with HCT116/VM46 (setting [11]).
